Earlier results, collected in US20200241005A1, “COMPOSITIONS AND METHODS FOR THE DIAGNOSIS AND TREATMENT OF DISEASES OF THE LIVER” (Viscient Biosciences, Inc., priority 2019, published 2020).

Tests used:
SLC1A1 [1] = settings: astroglial cells; unknown mechanism
SLC1A1 [2] = settings: SLC1A1 vs SLC1A2 and SLC1A3

| SMILES | effect on SLC1A1 expression (SLC1A1 [1]) | preference for SLC1A1 over its most related homologs SLC1A2 and SLC1A3 (SLC1A1 [2]) [fold] |
| --- | --- | --- |
| Nc1nc2ccc(OC(F)(F)F)cc2s1 [Riluzole] | enhances SLC1A1 expression |  |
| N[C@H](C(=O)O)[C@H](Cc1ccccc1)C(=O)O [L-beta-benzyl-aspartate] |  | 10 |
